Like-named read-outs stand apart in the source and are kept apart here.
Tests used:
HCV 1a replicon = assay: Cell-based HCV replicon assay (TaqMan), genotype 1a replicon; conditions: HCV genotype 1a replicon cells, replicon RNA by real time PCR, day 3, EC90 = concentration for ΔCT=3.2 over baseline
Procedure: (§1) Measurement of inhibition by compounds of the present invention was performed using the HCV replicon system. Several different replicons encoding different HCV genotypes or mutations were used. In addition, potency measurements were made using different formats of the replicon assay, including different ways of measurements and different plating formats. See Jan M. Vrolijk et al., A replicons-based bioassay for the measurement of interferons in patients with chronic hepatitis C, 110 J. VIROLOGICAL METHODS 201 (2003); Steven S. Carroll et al., Inhibition of Hepatitis C Virus RNA Replication by 2′-Modified Nucleoside Analogs, 278(14) J. BIOLOGICAL CHEMISTRY 11979 (2003). However, the underlying principles are common to all of these determinations, and are outlined below.
(§2) TaqMan®-Based Assay Protocol:
(§3) Compounds of the present invention were assayed for cell-based anti-HCV activity using the following protocol. Replicon cells were seeded at 5000 cells/well in 96-well collagen I-coated Nunc plates in the presence of the test compound. Various concentrations of test compound, typically in 10 serial 2-fold dilutions, were added to the assay mixture, with the starting concentration ranging from 250 μM to 1 μM. The final concentration of DMSO was 0.5%, fetal bovine serum was 5%, in the assay media. Cells were harvested on day 3 by the addition of 1× cell lysis buffer (Ambion cat #8721). The replicon RNA level was measured using real time PCR (TaqMan® assay). The amplicon was located in 5B. The PCR primers were: 5B.2F, ATGGACAGGCGCCCTGA (SEQ. ID NO. 1); 5B.2R, […] (SEQ. ID NO. 2); the probe sequence was FAM-labeled CACGCCATGCGCTGCGG (SEQ. ID NO. 3). GAPDH RNA was used as endogenous control and was amplified in the same reaction as NS5B (multiplex PCR) using primers and VIC-labeled probe recommended by the manufacturer (PE Applied Biosystem). The real-time […] reactions were run on ABI PRISM 7900HT Sequence Detection System using the following program: 48° C. for 30 minutes, 95° C. for 10 minutes, 40 cycles of 95° C. for 15 sec, 60° C. for 1 minute. The ΔCT values (CT5B-CTGAPDH) were plotted against the concentration of test compound and fitted to the sigmoid dose-response model using XLfit4 (MDL). EC50 was defined as the concentration of inhibitor necessary to achieve ΔCT=1 over the projected baseline; EC90 the concentration necessary to achieve ΔCT=3.2 over the baseline. Alternatively, to quantitate the absolute amount of replicon RNA, a standard curve was established by including serially diluted T7 transcripts of replicon RNA in the Taqman assay. All TaqMan® reagents were from PE Applied Biosystems. Such an assay procedure was described in detail in e.g. Malcolm et al., Antimicrobial Agents and Chemotherapy 50: 1013-1020 (2006).
(§4) HCV replicon EC50 assay data for various replicons and mutants was calculated for selected compounds of the present invention using this method and is provided in the tables above herein.

HCV 1a Y93H replicon = assay: Cell-based HCV replicon assay (TaqMan), 1a Y93H mutant replicon; conditions: EC90 = concentration for ΔCT=3.2 over baseline
Procedure: as §1, §2, §3, §4

HCV 2b replicon = assay: Cell-based HCV replicon assay (TaqMan), genotype 2b replicon; conditions: EC90 = concentration for ΔCT=3.2 over baseline
Procedure: as §1, §2, §3, §4

[1] = Hepatitis C virus, 72 h, read-out: 1a Y93H EC90, HCV 1a Y93H mutant replicon cells, replicon RNA by real time PCR, day 3
[2] = Hepatitis C virus, 72 h, read-out: 2b EC90, HCV genotype 2b replicon cells, replicon RNA by real time PCR, day 3
[3] = read-out: 2b EC90, HCV genotype 2b replicon cells, replicon RNA by real time PCR, day 3

Row | SMILES | EC90 (HCV 1a replicon; Hepatitis C virus, 72 h) | EC90 (HCV 1a Y93H replicon; [1]) | EC90 (HCV 2b replicon; [2]) | EC90 (HCV 1a replicon) | EC90 (HCV 2b replicon; [3]) | EC90 (HCV 1a Y93H replicon; read-out: 1a Y93H EC90, HCV 1a Y93H mutant replicon cells, replicon RNA by real time PCR, day 3)
1 | COC(=O)N[C@H](C(=O)N1CCC[C@H]1c1ncc(-c2ccc(-c3ccc4c(ccc5nc([C@@H]6C[Si](C)(C)CN6C(=O)[C@@H](NC(=O)OC)C(C)OC)[nH]c54)c3)cc2)[nH]1)C(C)OC (some centres unmarked) [Compound 19] | 0.036 nM | > 100 nM | > 100 nM |  |  | 
2 | CCC(C)[C@H](NC(=O)OC)C(=O)N1CCC[C@H]1c1ncc(-c2ccc(-c3ccc4c(ccc5nc([C@@H]6C[Si](C)(C)CN6C(=O)[C@@H](NC(=O)OC)C(C)CC)[nH]c54)c3)cc2)[nH]1 (some centres unmarked) [Compound 20] | 0.063 nM | > 100 nM | > 100 nM |  |  | 
3 | CCN(CC)[C@@H](C(=O)N1CCC[C@H]1c1ncc(-c2ccc(-c3ccc4c(ccc5nc([C@@H]6C[Si](C)(C)CN6C(=O)[C@@H](c6ccccc6)N(CC)CC)[nH]c54)c3)cc2)[nH]1)c1ccccc1 [Compound 21] | 0.25 nM | > 100 nM | 0.39 nM |  |  | 
4 | COC(=O)N[C@H](C(=O)N1C[Si](C)(C)C[C@H]1c1ncc(-c2ccc(-c3ccc4c(ccc5nc([C@@H]6CCCN6C(=O)[C@@H](NC(=O)OC)C6CCCC6)[nH]c54)c3)cc2)[nH]1)C1CCCC1 [Compound 35] | 0.5 nM | 555 nM | 566 nM |  |  | 
5 | COC(=O)N[C@H](C(=O)N1C[Si](C)(C)C[C@H]1c1ncc(-c2ccc(-c3ccc4c(ccc5nc([C@@H]6CCCN6C(=O)[C@@H](NC(=O)OC)[C@@H](C)OC)[nH]c54)c3)cc2)[nH]1)[C@@H](C)OC [Compound 36] | 0.152 nM | 276 nM | > 1000 nM |  |  | 
6 | COC(=O)N[C@@H](Cc1cccc(O)c1)C(=O)N1C[Si](C)(C)C[C@H]1c1ncc(-c2ccc(-c3ccc4c(ccc5nc([C@@H]6CCCN6C(=O)[C@H](Cc6cccc(O)c6)NC(=O)OC)[nH]c54)c3)cc2)[nH]1 [Compound 37] | 2.52 nM | > 1000 nM | > 1000 nM |  |  | 
7 | COC(=O)N[C@@H](Cn1ncnn1)C(=O)N1C[Si](C)(C)C[C@H]1c1ncc(-c2ccc(-c3ccc4c(ccc5nc([C@@H]6CCCN6C(=O)[C@H](Cn6ncnn6)NC(=O)OC)[nH]c54)c3)cc2)[nH]1 [Compound 38] | 2.57 nM | > 1000 nM | 408 nM |  |  | 
8 | COC(=O)N1CCOC[C@H]1C(=O)N1C[Si](C)(C)C[C@H]1c1ncc(-c2ccc(-c3ccc4c(ccc5nc([C@@H]6CCCN6C(=O)[C@@H]6COCCN6C(=O)OC)[nH]c54)c3)cc2)[nH]1 [Compound 39] | 149 nM | > 1000 nM | > 1000 nM |  |  | 
9 | COC(=O)N[C@@H](Cc1cn(C)cn1)C(=O)N1C[Si](C)(C)C[C@H]1c1ncc(-c2ccc(-c3ccc4c(ccc5nc([C@@H]6CCCN6C(=O)[C@H](Cc6cn(C)cn6)NC(=O)OC)[nH]c54)c3)cc2)[nH]1 [Compound 40] | 2.57 nM | > 1000 nM | > 1000 nM |  |  | 
10 | CC[C@H](C)[C@H](NC(=O)OC)C(=O)N1C[Si](C)(C)C[C@H]1c1ncc(-c2ccc(-c3ccc4c(ccc5nc([C@@H]6CCCN6C(=O)[C@@H](NC(=O)OC)[C@@H](C)CC)[nH]c54)c3)cc2)[nH]1 [Compound 41] |  | 614 nM |  | 0.19 nM | 271 nM | 
11 | CC[C@H](NC(=O)OC)C(=O)N1C[Si](C)(C)C[C@H]1c1ncc(-c2ccc(-c3ccc4c(ccc5nc([C@@H]6CCCN6C(=O)[C@H](CC)NC(=O)OC)[nH]c54)c3)cc2)[nH]1 [Compound 44] | 0.3 nM | 302 nM | 171 nM |  |  | 
12 | COC(=O)N[C@@H](CCSC)C(=O)N1C[Si](C)(C)C[C@H]1c1ncc(-c2ccc(-c3ccc4c(ccc5nc([C@@H]6CCCN6C(=O)[C@H](CCSC)NC(=O)OC)[nH]c54)c3)cc2)[nH]1 [Compound 45] | 0.85 nM | > 1000 nM | 563 nM |  |  | 
13 | COC(=O)N[C@@H](Cc1ccccc1)C(=O)N1C[Si](C)(C)C[C@H]1c1ncc(-c2ccc(-c3ccc4c(ccc5nc([C@@H]6CCCN6C(=O)[C@H](Cc6ccccc6)NC(=O)OC)[nH]c54)c3)cc2)[nH]1 [Compound 46] | 4.75 nM | > 1000 nM | > 1000 nM |  |  | 
14 | CC[C@H](C)[C@H](NC(=O)OC)C(=O)N1C[Si](C)(C)C[C@H]1c1ncc(-c2ccc(-c3ccc4c(ccc5nc([C@@H]6CCCN6C(=O)[C@@H](NC(=O)OC)[C@@H](C)CC)[nH]c54)c3)cc2)[nH]1 [Compound 47] |  |  |  | 0.59 nM | 578 nM | 953 nM
15 | CCCC(NC(=O)OC)C(=O)N1C[Si](C)(C)C[C@H]1c1ncc(-c2ccc(-c3ccc4c(ccc5nc([C@@H]6CCCN6C(=O)[C@H](CCC)NC(=O)OC)[nH]c54)c3)cc2)[nH]1 (some centres unmarked) [Compound 48] | 0.64 nM | 761 nM | 882 nM |  |  | 
16 | COC(=O)N[C@H](C)C(=O)N1C[Si](C)(C)C[C@H]1c1ncc(-c2ccc(-c3ccc4c(ccc5nc([C@@H]6CCCN6C(=O)[C@@H](C)NC(=O)OC)[nH]c54)c3)cc2)[nH]1 [Compound 49] | 386 nM | > 1000 nM | > 1000 nM |  |  | 
17 | COC(=O)N[C@@H](C(=O)N1C[Si](C)(C)C[C@H]1c1ncc(-c2ccc(-c3ccc4c(ccc5nc([C@@H]6CCCN6C(=O)[C@H](NC(=O)OC)C6CC6)[nH]c54)c3)cc2)[nH]1)C1CC1 [Compound 50] | > 1000 nM | > 1000 nM | > 1000 nM |  |  | 
18 | COC(=O)N[C@H](C(=O)N1C[Si](C)(C)C[C@H]1c1ncc(-c2ccc(-c3ccc4c(ccc5nc([C@@H]6CCCN6C(=O)[C@@H](NC(=O)OC)C6CC6)[nH]c54)c3)cc2)[nH]1)C1CC1 [Compound 51] | 0.51 nM | > 1000 nM | > 1000 nM |  |  | 
19 | COC(=O)N[C@H](C(=O)N1C[Si](C)(C)C[C@H]1c1ncc(-c2ccc(-c3ccc4c(ccc5nc([C@@H]6CCCN6C(=O)[C@@H](NC(=O)OC)C6CCCOCC6)[nH]c54)c3)cc2)[nH]1)C1CCCOCC1 (some centres unmarked) [Compound 52] | 2.3 nM | > 1000 nM | 37 nM |  |  | 
20 | COC(=O)N[C@@H](C(=O)N1C[Si](C)(C)C[C@H]1c1ncc(-c2ccc(-c3ccc4c(ccc5nc([C@@H]6CCCN6C(=O)[C@H](NC(=O)OC)c6ccccc6)[nH]c54)c3)cc2)[nH]1)c1ccccc1 [Compound 53] | 7.27 nM | > 1000 nM | > 1000 nM |  |  | 
21 | COC(=O)N1CCC[C@H]1C(=O)N1C[Si](C)(C)C[C@H]1c1ncc(-c2ccc(-c3ccc4c(ccc5nc([C@@H]6CCCN6C(=O)[C@@H]6CCCN6C(=O)OC)[nH]c54)c3)cc2)[nH]1 [Compound 54] | > 1000 nM | > 1000 nM | > 1000 nM |  |  | 
22 | CC(C)(C)OC(=O)N1C[Si](C)(C)C[C@H]1c1nc2ccc3cc(-c4ccc(-c5cnc([C@@H]6C[C@H]7C[C@H]7N6C(=O)OC(C)(C)C)[nH]5)cc4)ccc3c2[nH]1 [Compound 97] |  | > 1000 nM |  | > 1 nM |  | 
23 | COC(=O)N[C@H](C(=O)N1C[Si](C)(C)C[C@H]1c1nc2ccc3cc(-c4ccc(-c5[nH]c([C@@H]6C[C@H]7C[C@H]7N6C(=O)[C@@H](NC(=O)OC)C(C)C)nc5Cl)cc4)ccc3c2[nH]1)C(C)C [Compound 102] | 0.048 nM | 140 nM |  |  |  | 
24 | CC(C)(C)OC(=O)N1C[Si](C)(C)C[C@H]1c1nc2ccc3cc(-c4ccc(-c5nc(Cl)c([C@@H]6C[C@H]7C[C@H]7N6C(=O)OC(C)(C)C)[nH]5)cc4)ccc3c2[nH]1 [Compound 109] | > 1 nM | > 100 nM |  |  |  | 
25 | CC(C)(C)OC(=O)N1CCC[C@H]1c1ncc(-c2ccc3cc(-c4ccc5c(ccc6nc([C@@H]7C[Si](C)(C)CN7C(=O)OC(C)(C)C)[nH]c65)c4)ccc3c2)[nH]1 [Compound 110] | > 1000 nM | > 1000 nM |  |  |  | 

— US20150057246A1, “SILYL-CONTAINING HETEROCYCLIC COMPOUNDS AND METHODS OF USE THEREOF FOR THE TREATMENT OF VIRAL DISEASES” (priority 2012, published 2015)
